≈ marks a conversion by molar mass, not a printed value.
Tested on: Mycobacterium tuberculosis
Experiment: Antimycobacterial activity against Mycobacterium tuberculosis H37Rv by MABA method
Format: functional

Structure (SMILES) | MIC99 [µM]
COc1ccc(CCNCCCC(C#N)(c2ccc(OC)c(OC)c2)C(C)C)cc1OC (stereo not drawn) [NORVERAPAMIL] | 500 (≈ 220 µg/mL)
COc1ccc(CCN(C)CCCC(C#N)(c2ccc(OC)c(OC)c2)C2CCCCC2)cc1OC (stereo not drawn) | 62.5 (≈ 30.9 µg/mL)
COc1ccc(CCN(C)CCCC(C#N)c2ccc(OC)c(OC)c2)cc1OC (stereo not drawn) | 1000 (≈ 413 µg/mL)
COc1ccc(C(C#N)(CCCN2CCC(N3CCCCC3)CC2)C(C)C)cc1OC (stereo not drawn) | 500 (≈ 214 µg/mL)
COc1ccc(CCN(CCCC(C#N)(c2ccc(OC)c(OC)c2)C(C)C)C2CC2)cc1OC (stereo not drawn) | 125 (≈ 60.1 µg/mL)
COc1ccc(C(C#N)(CCCN2CCOCC2)C(C)C)cc1OC (stereo not drawn) | 1000 (≈ 346 µg/mL)
CCN(CCCC(C#N)(c1ccc(OC)c(OC)c1)C(C)C)CCc1ccc(OC)c(OC)c1 (stereo not drawn) | 1000 (≈ 469 µg/mL)
COc1ccc(C(C#N)(CCCN2CCC(O)CC2)C(C)C)cc1OC (stereo not drawn) | 1000 (≈ 360 µg/mL)
CCCC(C#N)(CCCN(C)CCc1ccc(OC)c(OC)c1)c1ccc(OC)c(OC)c1 (stereo not drawn) | 500 (≈ 227 µg/mL)
COc1ccc(C(C#N)(CCCN2CCC(O)(c3ccccc3)CC2)C(C)C)cc1OC (stereo not drawn) | 250 (≈ 109 µg/mL)
COc1ccc(C(C#N)(CCCN2CCN(c3ccccc3)CC2)C(C)C)cc1OC (stereo not drawn) | 250 (≈ 105 µg/mL)
COc1ccc(CCN(C)CCCC(C#N)(c2ccc(OC)c(OC)c2)C2CCCC2)cc1OC (stereo not drawn) | 125 (≈ 60.1 µg/mL)
COc1ccc(CCN(C)CCCC(C#N)(c2ccc(OC)c(OC)c2)C(C)C)cc1OC (stereo not drawn) [VERAPAMIL] | 500 (≈ 227 µg/mL)
COc1ccc(N(C)CCCC(C#N)(c2ccc(OC)c(OC)c2)C(C)C)cc1OC (stereo not drawn) | 1000 (≈ 427 µg/mL)
COc1ccc(C(C#N)(CCCN2CCCCC2)C(C)C)cc1OC (stereo not drawn) | 1000 (≈ 344 µg/mL)
COc1ccc(CCN(CCCC(C#N)(c2ccc(OC)c(OC)c2)C(C)C)Cc2ccccc2)cc1OC (stereo not drawn) | 1000 (≈ 531 µg/mL)
COc1ccc(C(C#N)(CCCN2CCN(c3ccccc3F)CC2)C(C)C)cc1OC (stereo not drawn) | 62.5 (≈ 27.5 µg/mL)
CO[C@H]1/C=C/O[C@@]2(C)Oc3c(C)c(O)c4c(O)c(c(/C=N/N5CCN(C)CC5)c(O)c4c3C2=O)NC(=O)/C(C)=C\C=C\[C@H](C)[C@H](O)[C@@H](C)[C@@H](O)[C@@H](C)[C@H](OC(C)=O)[C@@H]1C [RIFAMPIN] | 0.0083 (≈ 0.00683 µg/mL)
CCCN(CCCC(C#N)(c1ccc(OC)c(OC)c1)C(C)C)CCc1ccc(OC)c(OC)c1 (stereo not drawn) | 500 (≈ 241 µg/mL)
COc1ccc(C(C#N)(CCCN2CCN(c3ccccn3)CC2)C(C)C)cc1OC (stereo not drawn) | 250 (≈ 106 µg/mL)
CCC(C#N)(CCCN(C)CCc1ccc(OC)c(OC)c1)c1ccc(OC)c(OC)c1 (stereo not drawn) | 1000 (≈ 441 µg/mL)
COc1ccc(CCN(C)CCCC(C)(C#N)c2ccc(OC)c(OC)c2)cc1OC (stereo not drawn) | 1000 (≈ 427 µg/mL)
COc1ccc(CN(C)CCCC(C#N)(c2ccc(OC)c(OC)c2)C(C)C)cc1OC (stereo not drawn) | 1000 (≈ 441 µg/mL)

Source: ChEMBL document CHEMBL3352715, “Synthesis of new verapamil analogues and their evaluation in combination with rifampicin against Mycobacterium tuberculosis and molecular docking studies in the binding site of efflux protein Rv1258c” (2014)
